# Test results published in patent US6362212B1, “Oxime derivative and bactericide containing the same as active ingredient” (Shionogi & Company, Ltd., priority 1994, dated 2002).
# Key:
# Assay type in all cases: in vivo
# Pyricularia oryzae = conditions: foliage spray on rice seedlings (cv. […]), number of lesions six days after the inoculation
# Sphaerotheca fuliginea = assay: Controlling effect on Sphaerotheca fuliginea by foliage application (pot experiment); conditions: foliage spray on cucumber (cv. TSUKUBASHIROIBO) first leaves, infected area after 10 days in greenhouse at 20° C.
# In short: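 First leaves of cucumber seedlings, 2-3 weeks old, were sprayed with compound (DMF solution diluted in water with spreader). They were inoculated 24 h later with a Sphaerotheca fuliginea conidia spray and kept 10 days at 20° C in a greenhouse. Percent control was calculated from infected leaf area.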
# Botrytis cinerea = assay: Controlling effect on Botrytis cinerea by foliage application (pot experiment); conditions: foliage spray on cucumber (cv. TSUKUBASHIROIBO) first leaves, mycelial disks, lesion diameter after 3 days in moist chamber at 20° C.
# Description: The following Test Examples illustrate the effects of the fungicide of the present invention. (I. Controlling effects on various plant diseases by foliage application (pot experiment)) A test compound was dissolved in a small amount of N,N-dimethylformamide, and the solution was diluted to a given concentration with distilled water containing a spreader. Thus, a liquid sample to be tested was prepared. The liquid sample was sprayed to test plants, and 24 hours thereafter, pathogens were inoculated by the method described below. […] The seeds of cucumber ([…]) were sown in plastic cups (each 9 cm in diameter), followed by cultivation for 2 to 3 weeks. The test compound in the form of a solution or suspension was sprayed to the surface of their first leaves, and mycelial disks (4 mm φ) of Botrytis cinerea cultured on the potato sucrose agar medium were put on the leaf surfaces to inoculate. the cucumber seedlings with the pathogen. The plants were kept in a moist chamber at 20° C. for 3 days. The diameter of the lesions on the leaves was measured and the percent control was calculated.
# [1] = system: Erysiphe graminis f. sp. tritici; assay: Controlling effect on Erysiphe graminis f. sp. tritici by foliage application (pot experiment); conditions: foliage spray on wheat (cv. NORIN No. 61) seedlings, infected area after 10 days in greenhouse at 20° C.
# In short: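 Wheat seedlings (cv. NORIN No. 61, 2-3 weeks old) sprayed with compound in DMF diluted in water with spreader, then inoculated with conidia 24 hours later. Kept in greenhouse at 20 °C for 10 days; percent control calculated from infected leaf area.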
# [2] = system: Pseudoperonospora cubensis; assay: Controlling effect on Pseudoperonospora cubensis by foliage application (pot experiment); conditions: foliage spray on cucumber (var. TSUKUBASHIROIBO) first leaves, lesion area after 10 days in moist chamber at 20° C.
# In short: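 Cucumber plants grown 2–3 weeks were sprayed on first leaves with compound (DMF solution diluted in water with spreader); 24 h later, Pseudoperonospora cubensis zoosporangia suspension dropped on leaves. Plants held in moist chamber at 20° C for 10 days; lesion area observed and percent control calculated.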
# Puccinia coronata = assay: Controlling effect on Puccinia coronata by foliage application (pot experiment); conditions: foliage spray on oat (cv. PC-38) seedlings, infected area after 1 day moist chamber and 8 days greenhouse at 20° C.
# Description: The following Test Examples illustrate the effects of the fungicide of the present invention. (I. Controlling effects on various plant diseases by foliage application (pot experiment)) A test compound was dissolved in a small amount of N,N-dimethylformamide, and the solution was diluted to a given concentration with distilled water containing a spreader. Thus, a liquid sample to be tested was prepared. The liquid sample was sprayed to test plants, and 24 hours thereafter, pathogens were inoculated by the method described below. […] The seeds of oat (cv.: PC-38) were sown in plastic cups (each 9 cm in diameter), followed by cultivation for 2 to 3 weeks. The test compound in the form of a solution or suspension was sprayed to the seedlings. Spores of Puccinia coronata cultured on oat leaves were collected, diluted about 10-fold with talc, and sprayed to the test plants to inoculate the plants with the pathogen. After the inoculation, the plants were kept in a moist chamber at 20° C. for 1 day and then in a greenhouse at 20° C. for 8 days. The infected area on the leaf was observed, and the percent control was calculated.
SMILES,Controlling effect on PYricularia orYzae by foliage application at 500 ppm (percent control) (Pyricularia oryzae),Controlling effect on Sphaerotheca fuliginea by foliage application at 500 ppm (percent control) (Sphaerotheca fuliginea),Controlling effect on Botrytis cinerea by foliage application at 500 ppm (percent control) (Botrytis cinerea),Controlling effect on ErYsiphe graminis f. sp. tritici by foliage application at 500 ppm (percent control) [1] [percent control],Controlling effect on Pseudoperonospora cubensis by foliage application at 500 ppm (percent control) [2] [percent control],Controllng effect on Puccinia coronata by foliage application at 500 ppm (percent control) (Puccinia coronata)
CON=C(c1ccon1)c1ccccc1COc1ccc(C)cc1 (mixture of isomers) [compound 314],90,100,70,70,100,–
"CON=C(c1ccccc1COc1cccc(Cl)c1)c1nccn1C (single isomer, unassigned) [106A]",97,100,70,70,100,–
"CON=C(c1ccccc1COc1cccc(C(F)(F)F)c1)c1nccn1C (single isomer, unassigned) [122A]",97,100,70,97,100,–
"CON=C(c1ccccc1COc1ccc(Cl)cc1Cl)c1nccn1C (single isomer, unassigned) [130A]",–,100,70,–,100,–
"CON=C(c1ccccc1COc1ccc(-c2ccccc2)cc1)c1nccn1C (single isomer, unassigned) [144A]",–,100,70,–,100,–
"CON=C(c1cc(C)no1)c1ccccc1COc1ccccc1C (single isomer, unassigned) [612A]",90,97,–,100,100,97
CON=C(c1nnco1)c1ccccc1COc1cccc(C(F)(F)F)c1 [compound 722],90,100,–,90,100,97
CON=C(c1ncon1)c1ccccc1COc1ccccc1 [compound 801],70,100,–,90,100,97
